From the supplement of paper PMC6470124

Columns and labels:
[1] = absolute recovery over vacuum-assisted evaporative concentration; higher = better recovery; conditions: enrichment method: VEC
Outline: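 Absolute recovery was calculated as (response ratio pre − unspiked)/(post − unspiked) × 100 from averages of ≥ 2 replicates. Influent (6 mL), effluent (15 mL), and surface and nanopure water (60 mL) samples were spiked with standards before concentration, after concentration, or not at all, at 200 ng/L for nanopure and surface water or 1000 ng/L for wastewater, with class- and compound-specific adjustments. Samples were evaporated at 55 °C and 20 mbar to about 0.3 mL, made up to 0.4 mL and centrifuged, then internal standards were added before LC-HRMS/MS analysis.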

[2] = absolute recovery over mixed-bed multilayer solid-phase extraction; higher = better recovery; conditions: enrichment method: SPE
Outline: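 Absolute recovery rests on background-corrected response ratios of pre- versus post-spiked samples, averaged over at least two replicates. Wastewater (100–250 mL, pH 6.5, glass-fibre filtered) was spiked at 1000 ng/L and unfiltered nanopure water (1000 mL) at 200 ng/L, before or after three-layer mixed-bed cartridge extraction or not at all, with exceptions for some classes. Analysis after internal standard addition used liquid chromatography with high-resolution tandem mass spectrometry in both ionisation modes.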

[3] = LC retention time (Atlantis T3, 5-95% MeOH gradient, 0.1% formic acid); higher = more retained / less polar
Outline: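 Retention times were recorded for reference standards (purity ≥ 95%) on a polar reversed-phase C18 column (Atlantis T3, 3 × 150 mm, 3 μm) at 0.3 mL/min. Elution used water and methanol, each with 0.1% formic acid, in a gradient from 5 to 95% methanol over 17.5 min. Detection was by high-resolution tandem mass spectrometry on a QExactive Plus, with positive and negative electrospray in separate runs. Peaks were found and integrated in TraceFinder (5 ppm tolerance, at least three points per peak) and then checked by hand.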

| Structure (SMILES) | absolute recovery ([1]; wastewater effluent) [%] | absolute recovery ([1]; wastewater influent) [%] | absolute recovery ([2]; nanopure water) [%] | absolute recovery ([2]; surface water) [%] | absolute recovery ([2]; wastewater influent) [%] | LC retention time [3] [min] | absolute recovery ([2]; wastewater effluent) [%] |
| --- | --- | --- | --- | --- | --- | --- | --- |
| N#Cc1cc(I)c([O-])c(I)c1 [Ioxynil] | 106 | 111 | 103 | 102 | 96.2 | 19.3 | 99.4 |
| CC(C)c1ccc(NC(=O)N(C)C)cc1 [Isoproturon] | 102 | 103 | 98.5 | 97.4 | 92.5 | 18.5 | 97 |
| CS(=O)(=O)c1cc(C(F)(F)F)ccc1C(=O)c1cnoc1C1CC1 [Isoxaflutole] | 74.8 | – | 19.2 | 21.8 | 35.1 | 18.3 | 22.8 |
| C[NH2+]C1(c2ccccc2Cl)CCCCC1=O (stereo not drawn) [Ketamin] | 101 | 105 | 83.7 | 82.3 | 90.4 | 11.7 | 82.9 |
| CON=C(C(=O)OC)c1ccccc1COc1ccccc1C [Kresoxim-methyl] | 98.9 | 89.9 | 103 | 110 | 93.5 | 20.7 | 103 |
| O=c1[nH]c2c(c(=O)n1C1CCCCC1)CCC2 [Lenacil] | 102 | 103 | 93.2 | 87.6 | 92.4 | 18.6 | 92 |
| CCC(C(N)=O)N1CCCC1=O (stereo not drawn) [Levetiracetam] | 105 | – | 65.6 | 60.2 | – | 10.9 | 56.3 |
| CON(C)C(=O)Nc1ccc(Cl)c(Cl)c1 [Linuron] | 101 | 99.8 | 96.5 | 98.3 | 93.3 | 19.5 | 92.4 |
| O=C1Nc2ccc(Cl)cc2C(c2ccccc2Cl)=NC1O (stereo not drawn) [Lorazepam] | 108 | 104 | 104 | 94.3 | 87.4 | 18.3 | 97.3 |
| Cc1cc(Cl)ccc1OCC(=O)[O-] [MCPA] | 102 | 103 | 96.1 | 92.9 | 94.2 | 19.3 | 92.7 |
| Cc1cc(Cl)ccc1OCCCC(=O)[O-] [MCPB] | 103 | – | 100 | 95.2 | 108 | 20.3 | 97.5 |
| C#CCOc1ccc(CCNC(=O)C(OCC#C)c2ccc(Cl)cc2)cc1OC (stereo not drawn) [Mandipropamid] | 110 | 112 | 105 | 117 | 93.5 | 19.2 | 110 |
| Cc1cc(Cl)ccc1OC(C)C(=O)[O-] (stereo not drawn) [Mecoprop] | 101 | 99 | 100 | 99.2 | 94.2 | 20 | 94.9 |
| CN1CC[NH+]=C(c2ccccc2)c2cc(Cl)ccc21 [Medazepam] | 103 | 109 | 83.9 | 95.2 | 68.8 | 14.5 | 93.6 |
| CC#Cc1cc(C)nc(Nc2ccccc2)n1 [Mepanipyrim] | 95.3 | 62.1 | 93.5 | 107 | 94.9 | 20.2 | 103 |
| CCOC(=O)C1(c2ccccc2)CC[NH+](C)CC1 [Meperidine] | 99.2 | 103 | 88.6 | 87.8 | 96.6 | 12.8 | 86.8 |
| C[NH2+]C(C)C(=O)c1ccc(C)cc1 (stereo not drawn) [Mephedron (=4-Methylmethcathinon)] | 76.7 | 71.4 | 62.3 | 66.2 | 72.7 | 11.4 | 62.8 |
| CCC1(c2cccc(O)c2)CCCC[NH+](C)C1 (stereo not drawn) [Meptazinol] | 110 | 103 | 90.6 | 92.9 | 91.9 | 12.1 | 86.5 |
| CS(=O)(=O)c1ccc(C(=O)[C-]2C(=O)CCCC2=O)c([N+](=O)[O-])c1 [Mesotrion] | 103 | 103 | – | 96.5 | 80.1 | 16 | 94.6 |

Now from value to molecule:

| absolute recovery ([1]; wastewater effluent) [%] | absolute recovery ([1]; wastewater influent) [%] | absolute recovery ([2]; nanopure water) [%] | absolute recovery ([2]; surface water) [%] | absolute recovery ([2]; wastewater influent) [%] | LC retention time [3] [min] | absolute recovery ([2]; wastewater effluent) [%] | Structure (SMILES) |
| --- | --- | --- | --- | --- | --- | --- | --- |
| 108 | 90.1 | 86.3 | 79.5 | 65.9 | 10.1 | – | COCC(=O)Nc1c(I)c(C(=O)NCC(O)CO)c(I)c(C(=O)N(C)CC(O)CO)c1I (stereo not drawn) [Iopromid] |
| 83.7 | 86.5 | 55.7 | – | 36 | 7.88 | 57.2 | O=C(NCC(O)CO)c1c(I)c(C(=O)NCC(O)CO)c(I)c(N(CCO)C(=O)CO)c1I (stereo not drawn) [Ioversol] |
| 103 | 101 | 59.6 | 65.7 | 61.4 | 9.16 | 76 | CC(=O)Nc1c(I)c(C(=O)[O-])c(I)c(C(=O)NCCO)c1I [Ioxitalamic-acid] |
| 89.8 | 92.3 | 96.4 | 85.1 | 98.8 | 20.1 | 85.2 | Cc1ccc(C(C)NC(=O)C(NC(=O)OC(C)C)C(C)C)cc1 (stereo not drawn) [Iprovalicarb] |
| 106 | 115 | 107 | 100 | 79 | 16.3 | 101 | CSc1nc(N)nc(NC(C)(C)C)n1 [Irgarol-descyclopropyl] |
| 98 | 95.5 | 101 | 98.8 | 91.2 | 19 | 97 | CSc1nc(NC2CC2)nc(NC(C)(C)C)n1 [Irgarol] |
| 102 | 103 | 99.9 | 94.1 | 95.4 | 17.7 | 95.4 | CC(C)c1ccc(NC(N)=O)cc1 [Isoproturon-didemethyl (=1-(4-Isoprophenyl)urea)] |
| 105 | 101 | 96.3 | 93.3 | 98.9 | 18.3 | 94.1 | CNC(=O)Nc1ccc(C(C)C)cc1 [Isoproturon-monodemethyl (=1-(4-Isoprophenyl)-3-methylurea)] |
| 26.4 | – | 82.7 | 93.3 | 62.5 | 20.6 | 103 | CCOC(=O)C1=NOC(c2ccccc2)(c2ccccc2)C1 [Isoxadifen-ethyl] |
| 71.5 | – | 80.2 | 62.2 | 85.8 | 16 | 66.4 | CC(=O)N1CCN(c2ccc(OCC3COC(Cn4cc[nH+]c4)(c4ccc(Cl)cc4Cl)O3)cc2)CC1 (stereo not drawn) [Ketoconazol] |
| 97.4 | 134 | 85.5 | 71.8 | 89.8 | 20.1 | 81.5 | CON=C(C(=O)[O-])c1ccccc1COc1ccccc1C [Kresoxim-methyl-acid] |
| 104 | 97.7 | 96.2 | 96.6 | 96.7 | 12.8 | 91.1 | Nc1nnc(-c2cccc(Cl)c2Cl)c(N)n1 [Lamotrigin] |
| 104 | 98.7 | 84.8 | 81.9 | 82 | 9.66 | 83.8 | c1ccc(C2CN3CCSC3=[NH+]2)cc1 (stereo not drawn) [Levamisol] |
| 103 | 135 | 88.7 | 108 | 114 | 11.2 | 93.3 | CC1COc2c(N3CCN(C)CC3)c(F)cc3c(=O)c(C(=O)[O-])cn1c23 (stereo not drawn) [Levofloxacin] |
| 101 | 99.4 | 97.1 | 96.5 | 95 | 11.2 | 93.5 | CC[NH+](CC)CC(=O)Nc1c(C)cccc1C [Lidocain] |
| 102 | 105 | 90.4 | 94.7 | 98.9 | 12.2 | 90.6 | CC[N+]([O-])(CC)CC(=O)Nc1c(C)cccc1C [Lidocaine-N-Oxide] |
| 103 | 100 | 92.3 | 90.5 | 99.5 | 14.9 | 92 | CC(=O)NCC1CN(c2ccc(N3CCOCC3)c(F)c2)C(=O)O1 (stereo not drawn) [Linezolid] |
| 99.1 | 105 | 85.5 | 85.9 | 88 | 18.3 | 80.1 | CCCCc1nc(Cl)c(CO)n1Cc1ccc(-c2ccccc2-c2nn[nH]n2)cc1 [Losartan] |
| 107 | 106 | 70.5 | 70.9 | 59.5 | 22.2 | 76.1 | CCC(C)C(=O)OC1CC(C)C=C2C=CC(C)C(CCC3CC(O)CC(=O)O3)C21 (stereo not drawn) [Lovastatin] |
| 102 | 97.7 | 101 | 95.7 | – | 21.9 | 93.3 | Cc1cccc(Nc2ccccc2C(=O)[O-])c1C [Mefenamic-acid] |
| 84.3 | 87.1 | 98 | 107 | 95 | 21.1 | 96.9 | CCOC(=O)C1=NN(c2ccc(Cl)cc2Cl)C(C)(C(=O)OCC)C1 (stereo not drawn) [Mefenpyr-diethyl] |
| 100 | 114 | 83.4 | 83.5 | 78 | 14.9 | 89.2 | CC12CC3CC(C)(C1)CC([NH3+])(C3)C2 [Memantine] |
| 106 | 103 | 78.4 | 74.7 | 89.6 | 11.6 | 80 | Cc1cccc(C)c1NC(=O)C1CCCC[NH+]1C (stereo not drawn) [Mepivacaine] |
| 111 | 101 | 101 | 95 | 98.7 | 18 | 96.2 | COC(=O)c1ccc(CNS(C)(=O)=O)cc1S(=O)(=O)[N-]C(=O)Nc1nc(OC)cc(OC)n1 [Mesosulfuron-methyl] |
| 98.9 | 104 | 98 | 57.1 | 93.6 | 9.31 | 89.3 | CS(=O)(=O)c1ccc(C(=O)[O-])c([N+](=O)[O-])c1 [Mesotrion-MNBA] |
